Source: US7786141B2 (Vertex Pharmaceuticals Incorporated, priority 2004, dated 2010)

Experiments:
[1] = biological target: T1, M1 muscarinic receptor (Homo sapiens, UniProt P11229); test: Functional mobilization of intracellular calcium (FLIPR) in M1-CHO cells; format: cell-based; settings: M1 receptor, calcium mobilization; for Emax: read-out: M1 Efficacy
T1 construct: expressed in transfected cells; host or cells: CHO (M1-CHO)
T1 sequence (P11229 1-460): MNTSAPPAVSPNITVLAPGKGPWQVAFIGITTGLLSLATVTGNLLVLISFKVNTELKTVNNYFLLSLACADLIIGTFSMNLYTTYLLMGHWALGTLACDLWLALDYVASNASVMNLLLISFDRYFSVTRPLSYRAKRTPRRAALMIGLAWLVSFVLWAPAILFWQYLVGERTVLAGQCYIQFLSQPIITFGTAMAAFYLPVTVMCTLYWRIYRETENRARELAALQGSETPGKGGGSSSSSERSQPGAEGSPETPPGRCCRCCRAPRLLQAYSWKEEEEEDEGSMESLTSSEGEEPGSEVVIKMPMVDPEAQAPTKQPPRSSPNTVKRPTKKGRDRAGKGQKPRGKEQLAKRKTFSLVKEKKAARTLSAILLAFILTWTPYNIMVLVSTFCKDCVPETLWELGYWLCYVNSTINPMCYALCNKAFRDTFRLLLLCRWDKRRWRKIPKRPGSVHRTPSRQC
In short: (§1)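 Steps: seed M1- or M4-CHO cells 18-24 hrs ahead; load calcium dye with 1 mM probenecid; add test compound (0.5% DMSO final), either alone for agonism or 15 min before EC80 carbachol for inhibition; record FLIPR fluorescence for 60 sec.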

[2] = biological target: T2, M4 muscarinic receptor (Homo sapiens, UniProt P08173); test: Functional mobilization of intracellular calcium (FLIPR) in M4-CHO cells; format: cell-based; settings: M4 receptor, calcium mobilization; for Emax: read-out: M4 Efficacy
T2 construct: expressed in transfected cells; host or cells: CHO (M4-CHO)
T2 sequence (P08173 1-479): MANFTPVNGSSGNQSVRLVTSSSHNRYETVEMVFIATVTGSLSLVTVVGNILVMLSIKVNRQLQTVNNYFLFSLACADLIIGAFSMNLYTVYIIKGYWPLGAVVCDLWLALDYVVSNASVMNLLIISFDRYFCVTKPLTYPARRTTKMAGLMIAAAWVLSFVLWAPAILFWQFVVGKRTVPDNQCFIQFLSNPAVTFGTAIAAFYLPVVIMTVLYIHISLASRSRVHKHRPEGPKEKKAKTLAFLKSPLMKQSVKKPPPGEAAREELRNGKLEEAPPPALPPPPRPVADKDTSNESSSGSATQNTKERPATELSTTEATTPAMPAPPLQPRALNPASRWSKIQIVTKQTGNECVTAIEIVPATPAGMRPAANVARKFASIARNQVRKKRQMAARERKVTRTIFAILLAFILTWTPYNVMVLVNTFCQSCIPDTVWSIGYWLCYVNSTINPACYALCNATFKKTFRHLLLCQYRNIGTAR
In short: as §1

SMILES	M1 Activity [1]	Emax [1] [%]	M4 Activity [2]	Emax [2] [%]	M1 Efficacy [1]	M4 Efficacy [2]
CC(C)OC(=O)N1C2CCC1CC(N1CCC3(CC1)CN(S(C)(=O)=O)c1ccc(F)cc13)C2 (centres unmarked) [compound 170]	xx (activity was measured to be between 0.1 μM and 1.0 μM)	65 to 85	x (activity was measured to be greater than 1.0 μM)	> 85	–	–
CC(=O)N[C@@H]1CC2(CCN([C@H]3C[C@@H]4CC[C@H]3C4)CC2)c2ccccc21 [compound 171]	xx (activity was measured to be between 0.1 μM and 1.0 μM)	> 85	x (activity was measured to be greater than 1.0 μM)	65 to 85	–	–
CC(=O)N1CC2(CCN(C3CCN(C(=O)OCCF)CC3)CC2)c2cc(F)ccc21 [compound 172]	x (activity was measured to be greater than 1.0 μM)	> 85	x (activity was measured to be greater than 1.0 μM)	65 to 85	–	–
CCOC(=O)N1CCC(N2CCC3(CC2)CN(C(=O)OC)c2ccc(F)cc23)CC1 [compound 173]	xxx (activity was measured to be less than 0.1 μM)	65 to 85	xx (activity was measured to be between 0.1 μM and 1.0 μM)	> 85	–	–
CC(=O)N1CC2(CCN(C3CC4CCC(C3)N4C(=O)OC3CCC3)CC2)c2cc(F)ccc21 (centres unmarked) [compound 174]	xxx (activity was measured to be less than 0.1 μM)	> 85	x (activity was measured to be greater than 1.0 μM)	65 to 85	–	–
Fc1ccc2c(c1)C1(CCN([C@@H]3C[C@@H]4CC[C@H]3C4)CC1)CO2 [compound 175]	xxx (activity was measured to be less than 0.1 μM)	65 to 85	xx (activity was measured to be between 0.1 μM and 1.0 μM)	65 to 85	–	–
CCOC(=O)N1CCC(CN2CCC3(CC2)COc2ccc(Cl)cc23)CC1 [compound 176]	xx (activity was measured to be between 0.1 μM and 1.0 μM)	> 85	xx (activity was measured to be between 0.1 μM and 1.0 μM)	65 to 85	–	–
CCOC(=O)N1CCC(N2CCC3(CC2)CN(C(C)=O)c2ccc(-c4ccc(S(C)(=O)=O)cc4)cc23)CC1 [compound 177]	xxx (activity was measured to be less than 0.1 μM)	65 to 85	xx (activity was measured to be between 0.1 μM and 1.0 μM)	65 to 85	–	–
Clc1ccc2c(c1)C1(CCO2)CCN(C2CCOCC2)CC1 [compound 178]	xx (activity was measured to be between 0.1 μM and 1.0 μM)	> 85	x (activity was measured to be greater than 1.0 μM)	65 to 85	–	–
CCOC(=O)N1C2CCC1CC(N1CCC3(CC1)CN(C(=O)C1CCC1)c1ccc(F)cc13)C2 (centres unmarked) [compound 179]	xx (activity was measured to be between 0.1 μM and 1.0 μM)	> 85	x (activity was measured to be greater than 1.0 μM)	65 to 85	–	–
CC(=O)NC1CC2(CCN(CC3CC4C=CC3C4)CC2)c2ccccc21 (centres unmarked) [compound 180]	xxx (activity was measured to be less than 0.1 μM)	65 to 85	xxx (activity was measured to be less than 0.1 μM)	65 to 85	–	–
Clc1ccc2c(c1)C1(CCN([C@H]3C[C@@H]4CC[C@H]3C4)CC1)CO2 [compound 181]	xx (activity was measured to be between 0.1 μM and 1.0 μM)	65 to 85	x (activity was measured to be greater than 1.0 μM)	65 to 85	–	–
COC(=O)N1CCC(CN2CCC3(CC2)C[C@H](NC(C)=O)c2ccccc23)CC1 [compound 182]	x (activity was measured to be greater than 1.0 μM)	65 to 85	x (activity was measured to be greater than 1.0 μM)	65 to 85	–	–
Fc1ccc2c(c1)C1(CCN(CC3CC4C=CC3C4)CC1)CN2 (centres unmarked) [compound 183]	xx (activity was measured to be between 0.1 μM and 1.0 μM)	65 to 85	x (activity was measured to be greater than 1.0 μM)	65 to 85	–	–
CC(=O)N[C@H]1CC2(CCN(CC3CCCCC3)CC2)c2ccccc21 [compound 184]	xx (activity was measured to be between 0.1 μM and 1.0 μM)	> 85	x (activity was measured to be greater than 1.0 μM)	65 to 85	–	–
CC(=O)NC1CC2(CCN(CC3CC4C=CC3C4)CC2)c2ccccc21 (centres unmarked) [compound 185]	x (activity was measured to be greater than 1.0 μM)	–	x (activity was measured to be greater than 1.0 μM)	–	xx (efficacy was calculated to be between 85% and 65%)	xx (efficacy was calculated to be between 85% and 65%)
O=C(OCC(F)F)N1C2CCC1CC(N1CCC3(CC1)COc1ccc(F)cc13)C2 (centres unmarked) [compound 186]	xxx (activity was measured to be less than 0.1 μM)	> 85	x (activity was measured to be greater than 1.0 μM)	65 to 85	–	–
CC(=O)N1CC2(CCN(CC3CCCC3)CC2)c2cc(F)ccc21 [compound 187]	xx (activity was measured to be between 0.1 μM and 1.0 μM)	65 to 85	x (activity was measured to be greater than 1.0 μM)	65 to 85	–	–
CN(C)C(=O)N1CC2(CCN(C3CC4CCC(C3)N4C(=O)O[C@@H]3CCOC3)CC2)c2cc(F)ccc21 (some centres unmarked) [compound 188]	x (activity was measured to be greater than 1.0 μM)	< 65	x (activity was measured to be greater than 1.0 μM)	65 to 85	–	–
CCOC(=O)N1C2CCC1CC(N1CCC3(CC1)CN(C(=O)c1cc(C)nn1C(C)(C)C)c1ccc(F)cc13)C2 (centres unmarked) [compound 189]	xxx (activity was measured to be less than 0.1 μM)	65 to 85	x (activity was measured to be greater than 1.0 μM)	65 to 85	–	–
CC(=O)N(C)[C@H]1CC2(CCN(C[C@H]3C[C@H]4CC[C@H]3C4)CC2)c2ccccc21 [compound 190]	x (activity was measured to be greater than 1.0 μM)	> 85	x (activity was measured to be greater than 1.0 μM)	65 to 85	–	–
CCOC(=O)N1CCC(N2CCC3(CC2)C(=O)Nc2ccccc23)CC1 [compound 191]	xxx (activity was measured to be less than 0.1 μM)	65 to 85	x (activity was measured to be greater than 1.0 μM)	65 to 85	–	–
COC(=O)N1CC2(CCN(C3CC4CCC(C3)N4C(=O)O[C@@H]3CCOC3)CC2)c2cc(F)ccc21 (some centres unmarked) [compound 192]	xxx (activity was measured to be less than 0.1 μM)	65 to 85	x (activity was measured to be greater than 1.0 μM)	65 to 85	–	–
